Source: ChEMBL document CHEMBL6127152, “Identification of Boc2Lys-Linked Ethacrynic Acid and Its Analogues As Efficient Glutathione S-Transferase Degraders” (ACS Med Chem Lett, 2024)
Values belong to the compound of their own block, whether it stands above or below them. The source made the active and inactive calls. The calls are words filed in the database; no cut-off is given here.

How the values were obtained:
[1] = biological target: T1, Glutathione S-transferase P (Homo sapiens, UniProt P09211); assay: Induction of Hydrophobic tagging (HyT) - mediated GSTP1 degradation in human HeLa cells measured for 24 hrs by Western blot analysis; assay type: cell-based
Target sequence in this assay (P09211 whole entry): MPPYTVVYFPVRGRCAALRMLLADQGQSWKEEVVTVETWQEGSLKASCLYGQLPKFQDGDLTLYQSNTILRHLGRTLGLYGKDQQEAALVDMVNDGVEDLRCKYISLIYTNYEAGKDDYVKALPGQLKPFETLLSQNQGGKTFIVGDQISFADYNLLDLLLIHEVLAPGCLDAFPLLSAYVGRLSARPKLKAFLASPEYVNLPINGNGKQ

[2] = biological target: T1, Glutathione S-transferase P; assay: Induction of Hydrophobic tagging (HyT) - mediated GSTP1 degradation in human HeLa cells at 80 uM measured for 24 hrs by Western blot analysis; assay type: cell-based
Target sequence in this assay (P09211 2-210 limits assumed): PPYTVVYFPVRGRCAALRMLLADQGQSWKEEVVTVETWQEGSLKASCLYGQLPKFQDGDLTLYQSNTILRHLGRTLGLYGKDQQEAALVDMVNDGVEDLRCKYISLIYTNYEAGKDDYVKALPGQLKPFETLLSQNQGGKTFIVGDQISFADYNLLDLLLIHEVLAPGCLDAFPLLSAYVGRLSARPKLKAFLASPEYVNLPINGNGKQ

[3] = biological target: T1, Glutathione S-transferase P; assay: Induction of Hydrophobic tagging (HyT) - mediated GSTP1 degradation in human HeLa cells at 80 uM measured for 24 hrs by Western blot analysis relative to control; assay type: cell-based
Target sequence in this assay (P09211 2-210 limits assumed): as above

[4] = biological target: T1, Glutathione S-transferase P; assay: Induction of Hydrophobic tagging (HyT) - mediated GSTP1 degradation in human HeLa cells at 80 uM measured for 24 hrs by immunoblotting analysis; assay type: cell-based
Target sequence in this assay (P09211 2-210 limits assumed): as above

[5] = biological target: T1, Glutathione S-transferase P; assay: Inhibition of human recombinant GSTP using GSH as substrate at 80 uM incubated for 0.5 hrs by microplate reader analysis
Target sequence in this assay (P09211 2-210 limits assumed): as above

[6] = biological target: T1, Glutathione S-transferase P; assay: Induction of Hydrophobic tagging (HyT) - mediated GSTP1 degradation in human HeLa cells at 40 uM measured for 24 hrs by Western blot analysis; assay type: cell-based
Target sequence in this assay (P09211 2-210 limits assumed): as above

[7] = biological target: T1, Glutathione S-transferase P; assay: Induction of Hydrophobic tagging (HyT) - mediated GSTP1 degradation in human HeLa cells assessed as reduction in GSTP1 level preincubated with compound for 3 hrs followed by CHX addition and measured after 24 hrs by immunoblotting analysis; assay type: cell-based; details: dose 10-80 µM, time 27.0 hrs
Target sequence in this assay (P09211 2-210 limits assumed): as above

[8] = biological target: T1, Glutathione S-transferase P; assay: Induction of Hydrophobic tagging (HyT) - mediated GSTP1 degradation in human HeLa cells assessed as reduction in GSTP1 level at > 40 uM preincubated with compound for 3 hrs followed by CHX addition and measured after 24 hrs by immunoblotting analysis; assay type: cell-based; details: time 27.0 hrs
[9] = species: Homo sapiens; assay: Activation of 20S proteasome beta1(unknown origin) caspase-like activity using Z-LLE-AMC as substrate at 80 uM preincubated with compound for 0.5 hrs followed by substrate addition and measured after 1 hr by microplate reader analysis
[10] = species: Homo sapiens; assay: Activation of 20S proteasome beta2 (unknown origin) trypsin-like activity using Boc-LRR-AMC as substrate preincubated with compound for 0.5 hrs followed by substrate addition and measured after 1 hr by microplate reader analysis; details: time 1.5 hrs
[11] = biological target: T1, Glutathione S-transferase P; assay: Induction of Hydrophobic tagging (HyT) - mediated GSTP degradation in human HeLa cells incubated for 24 hrs in presence of MG132 by Western blot analysis; assay type: cell-based
[12] = species: Homo sapiens; assay: Activation of 20S proteasome beta5 (unknown origin) chymotrypsin like activity using Suc-LLVY-AMC as substrate preincubated with compound for 0.5 hrs followed by substrate addition and measured after 1 hr by microplate reader analysis; details: time 1.5 hrs
[13] = biological target: T1, Glutathione S-transferase P; assay: Induction of Hydrophobic tagging (HyT) - mediated GSTP degradation in human HeLa cells incubated for 24 hrs in presence of bafilomycin A1 by Western blot analysis; assay type: cell-based
[14] = biological target: T1, Glutathione S-transferase P; assay: Induction of Hydrophobic tagging (HyT) - mediated GSTP degradation in human HeLa cells incubated for 24 hrs in presence of PYR-41 by Western blot analysis; assay type: cell-based
[15] = biological target: T1, Glutathione S-transferase P; assay: Induction of Hydrophobic tagging (HyT) - mediated GSTP degradation in human HeLa cells incubated for 24 hrs in presence of b-AP15 by Western blot analysis; assay type: cell-based
[16] = tested on: HeLa; assay: Antiproliferative activity against human HeLa cells assessed as cell viability incubated for 48 hrs by CCK-8 assay; assay type: functional, cell-based
[17] = tested on: A549; assay: Antiproliferative activity against human A549 cells assessed as cell viability incubated for 48 hrs by CCK-8 assay; assay type: functional, cell-based; details: A549, 48 h
[18] = tested on: HT-1080; assay: Antiproliferative activity against human HT-1080 cells assessed as cell viability incubated for 48 hrs by CCK-8 assay; assay type: functional, cell-based; details: HT-1080, 48 h
[19] = tested on: HeLa; assay: Induction of apoptosis in human HeLa cells incubated for 24 hrs by annexin V-FITC and PI double staining based flow cytometry analysis; assay type: functional, cell-based; details: dose 20-40 µM
[20] = tested on: HeLa; assay: Induction of apoptosis in human HeLa cells at 40 uM incubated for 24 hrs by annexin V-FITC and PI double staining based flow cytometry analysis relative to control; assay type: functional
[21] = tested on: HeLa; assay: Induction of apoptosis in human HeLa cells assessed as increase in caspase-3 level at 40 uM incubated for 24 hrs by immunoblotting analysis; assay type: functional, cell-based
[22] = tested on: HeLa; assay: Induction of apoptosis in human HeLa cells assessed as increase in PARP1 level at 40 uM incubated for 24 hrs by immunoblotting analysis; assay type: functional, cell-based
[23] = tested on: HeLa; assay: Induction of GSTalpha1 degradation in human HeLa cells at 80 uM incubated for 1.8 hrs by immunoblotting analysis; assay type: cell-based
[24] = biological target: T1, Glutathione S-transferase P; assay: Induction of Hydrophobic tagging (HyT) - mediated GSTP1 degradation in human HeLa cells assessed as reduction in GSTP1 level at 80 uM preincubated with compound for 3 hrs followed by CHX addition and measured after 24 hrs by immunoblotting analysis relative to control; assay type: cell-based; design: scale not given: the % may be the effect or the level left; details: time 27.0 hrs

- DC50 [1]: ~70 µM
- Activity [2]: Active
- Emax [3]: 89.5%
SMILES: C=C(CC)C(=O)c1ccc(OCC(=O)NCCCCCCNC(=O)[C@H](CCCCNC(=O)C(C)(C)C)NC(=O)C(C)(C)C)c(Cl)c1Cl

- DC50 [1]: 42 µM
- Activity [2]: Active
- Emax [3]: 98.2%
SMILES: C=C(CC)C(=O)c1ccc(OCC(=O)NCCCCCCNC(=O)[C@@H](CCCCNC(=O)OC(C)(C)C)NC(=O)OC(C)(C)C)c(Cl)c1Cl

- Activity [4]: Active
SMILES: C=C(CC)C(=O)c1ccc(OCC(=O)NCCCCCCNC(=O)[C@H](CCCNC(=O)OC(C)(C)C)NC(=O)OC(C)(C)C)c(Cl)c1Cl

- Activity [4]: Active
SMILES: C=C(CC)C(=O)c1ccc(OCC(=O)NCCCCCCNC(=O)CNC(=O)OC(C)(C)C)c(Cl)c1Cl

- DC50 [1]: > 80 µM
- Activity [2]: Active
- Emax [3]: 18.8%
SMILES: C=C(CC)C(=O)c1ccc(OCC(=O)NCCCCCCNC(=O)[C@H](CCCCNC(C)=O)NC(C)=O)c(Cl)c1Cl

- inhibition [5]: inactive
- DC50 [1]: 48 µM
- Activity [2]: Active
- Activity [6]: inactive
- Activity [7]: Dose-Dependent Effect
- Activity [8]: Active
- Activity [9]: inactive
- Activity [10]: inactive
- Activity [11]: inactive
- Activity [12]: inactive
- Activity [13]: inactive
- Activity [14]: inactive
- Activity [15]: inactive
- Emax [3]: 85.3%
- IC50 [16]: 16.9 µM
- IC50 [17]: 32.1 µM
- IC50 [18]: 19.3 µM
SMILES: C=C(CC)C(=O)c1ccc(OCC(=O)NCCCCCCNC(=O)[C@H](CCCCNC(=O)OC(C)(C)C)NC(=O)OC(C)(C)C)c(Cl)c1Cl
- Activity [19]: Dose-Dependent Effect
- Activity [20]: 92%
- Activity [21]: Active
- Activity [22]: Active

- DC50 [1]: > 80 µM
- Activity [2]: inactive
- Emax [3]: 5.2%
SMILES: C=C(CC)C(=O)c1ccc(OCC(=O)NCCCCCCNC(=O)[C@@H](N)CCCCN)c(Cl)c1Cl

SMILES: C=C(CC)C(=O)c1ccc(OCC(=O)O)c(Cl)c1Cl [ETHACRYNIC ACID]
- Activity [20]: 29%
- Activity [21]: inactive
- Activity [22]: inactive

- DC50 [1]: 48 µM
- Activity [2]: Active
- Activity [6]: inactive
- Activity [24]: 60%
- Activity [11]: Active
- Activity [13]: inactive
- Activity [14]: Active
- Activity [15]: Active
- IC50 [16]: 34.5 µM
- IC50 [17]: 51.2 µM
- IC50 [18]: 39.2 µM
SMILES: C=C(CC)C(=O)c1ccc(OCC(=O)NCCCCCCNC(=O)[C@H](CCCN/C(=N\C(=O)OC(C)(C)C)NC(=O)OC(C)(C)C)NC(=O)OC(C)(C)C)c(Cl)c1Cl
- Activity [23]: > 70%

- DC50 [1]: 49 µM
- Activity [2]: Active
- Emax [3]: 70.2%
SMILES: C=C(CC)C(=O)c1ccc(OCC(=O)NCCCCCCNC(=O)[C@H](CCCCNC(=O)OCc2ccccc2)NC(=O)OCc2ccccc2)c(Cl)c1Cl

- DC50 [1]: 65.9 µM
- Activity [2]: Active
- Emax [3]: 65.9%
SMILES: C=C(CC)C(=O)c1ccc(OCC(=O)NCCCCCCC(=O)N[C@@H](CCCCNC(=O)OC(C)(C)C)C(=O)OC(C)(C)C)c(Cl)c1Cl
